The values below are quoted from earlier work in paper PMC12291913 (Antibiotics, 2025).

≈ marks a conversion by molar mass, not a printed value.

What all share (conditions): drug alone, previous study ref 17; cited from earlier work
The subject of data set [1] is M. avium clinical isolate Koav 21 (WT).
The test system of data set [2] is M. avium clinical isolate Koav 15 (WT).
The subject of data set [3] is M. avium clinical isolate Koav 13 (GyrA Asp95Gly).
In data set [4] the test system is M. avium clinical isolate Koav 3 (GyrA Asp95Gly).
Data set [5] has as its system M. avium clinical isolate Koav 1 (WT).
In data set [6] the test system is M. avium clinical isolate Koav 25 (WT).
Data set [7] relates to M. avium clinical isolate Cl-A-2 (GyrA Asp95Tyr).
Data set [8] deals with M. avium clinical isolate Koav 2 (WT).
For data set [9], the system named is M. avium clinical isolate Koav 20 (WT).
Data set [10] deals with M. avium clinical isolate Koav 19 (WT).
The test system of data set [11] is M. avium clinical isolate Koav 11 (GyrA Asp95Tyr).

As to `C[C@H]1COc2c(N3CCN(C)CC3)c(F)cc3c(=O)c(C(=O)O)cn1c23` [LVX, levofloxacin], the MIC is 4 µg/mL (≈ 11.1 µM) in data set [1]; 4 µg/mL (≈ 11.1 µM) in [2]; 128 µg/mL (≈ 354 µM) in [3]; 64 µg/mL (≈ 177 µM) in [4]; less than 0.5 µg/mL in data set [5]; 4 µg/mL (≈ 11.1 µM) in data set [6]. In addition, the MIC was 64 µg/mL (≈ 177 µM) in data set [7]; 2 µg/mL (≈ 5.53 µM) in [8]; less than 0.5 µg/mL in data set [9]; 2 µg/mL (≈ 5.53 µM) in data set [10]; 8 µg/mL (≈ 22.1 µM) in [11].

The MIC is the lowest concentration that inhibits growth of the organism.
